“Also recorded” adds a separate entry of the source. Where a name gives a salt, the structure may show the parent alone. Read-outs that look alike come from different tables or passages of the source.
What was measured:
sigma binding sites = details: background statement; cited from earlier work
sigma sites [1] = assay: Sigma receptor binding assay, [3H]DTG; details: 5 nM [3H]DTG; guinea pig whole brain; room temperature, 45 minutes; read-out: Receptor Potency Sigma DTG (IC50, nMol)
Experimental: (§1) Two selective sigma receptor ligands, [^3 H](+)-3-[3-hydroxyphenyl]-N-(1 propyl)piperidine [(+)-3-PPP] and [^3 H] Ditolylguanidine (DTG), were used to label sigma sites in brain tissue.
(§2) The tissue preparation and assay conditions employed when using either of these ligands were essentially the same. Frozen whole guinea pig brains (obtained from Pel-Freez, Rogers, Ariz.) were homogenized in 10 volumes of ice-cold 0.32M sucrose. The resulting pellet was resuspended in 10 volumes of ice-cold 50 mM Tris-HCl (pH 7.4), incubated at 37 ° C. for 30 minutes, and centrifuged at 22,000 × g for 20 minutes. The final tissue suspension was made in 50 mM Tris-HCl (pH 7.4) to a concentration of 20 mg original wet weight/mL. 800 μL of tissue suspension was added to tubes containing 5 nM [^3 H] DTG or 4 nM [^3 H] […] The final assay volume was 1 mL. The assay tubes were gently vortexed, and the binding reaction was carried out for 45 minutes at room temperature. The reaction was terminated by rapid filtration over Whatman GF/B glass fiber filters, which were then rinsed 3x with 5 mL of 50 mM Tris-HCl. Filter bound radioactivity was quantified using liquid scintillation spectrometry.

[2] = Reversal of Amphetamine-Induced Hyperlocomotion; format: in vivo; details: Mus musculus, ip, read-out: Induced Locomotion Amphetamine (minimally effective dose, MED)
Description: Opto-varimex locomotor monitors (Columbus Instruments, Columbus, Ohio) were used to assess locomotor activity. The monitors consist of a 37×37 cm square plexiglass open field surrounded by an outer enclosure housing a 15×15 array of infrared photobeams. Placement of the mouse in the open field interrupts one or more beams. Movement is detected by successive interruption of more than one beam (setting: box size - 1). The monitors were placed on separate shelves in a dark test room. An IBM compatible computer (Compaq) monitored beam interruptions and calculated indices of locomotor activity (distance travelled, time ambulating) and stereotype behavior (number of small movements, time in stereotypy or small movements). Because the dose of amphetamine in these studies was too low to produce selective increases in stereotyped behavior, distance travelled was the primary dependent variable.

D2 [3] = biological target: T1, D2 (Rattus norvegicus, UniProt P61169); assay: Dopamine receptor binding, [3H]sulpiride; details: 3 nM [3H]sulpiride; rat striata; 60 minutes; read-out: Receptor Potency D2 (Ki, nMol)
T1 construct: Rat striata were homogenized; from tissue; host or cells: rat striatum membranes
Experimental: Dopamine receptor binding was determined using [^3 H] sulpiride. Rat striata were homogenized in 20 volumes of ice-cold 50 mM Tris-HCl (pH 7.5), and the resulting homogenate was centrifuged at 48,000 × g for 10 minutes. The resulting pellet was resuspended in the original volume of 50 mM Tris HCl and centrifuged as previously described. […] The filters were then washed 3 × with 5 mL of 50 mM Tris-HCl containing 100 mM NaCl, and filter bound radioactivity was quantified using liquid scintillation spectrometry.

[4] = Reversal of Phencyclidine-Induced Hyperlocomotion; format: in vivo, mouse; details: for minimal effective dose: Mus musculus, read-out: Induced Locomotion PCP (minimally effective dose, MED)
Description: Opto-varimex locomotor monitors (Columbus Instruments, Columbus, Ohio) were used to assess locomotor activity. The monitors consist of a 37×37 cm square plexiglass open field surrounded by an outer enclosure housing a 15×15 array of infrared photobeams. Placement of the mouse in the open field interrupts one or more beams. Movement is detected by successive interruption of more than one beam (setting: box size - 1). The monitors were placed on separate shelves in a dark test room. An IBM compatible computer (Compaq) monitored beam interruptions and calculated indices of locomotor activity (distance travelled, time ambulating) and stereotype behavior (number of small movements, time in stereotypy or small movements).
Male CFl mice (25°-30 g) were obtained from Harlan Sprague Dawley (Indianapolis, (N) and group-housed with free access to food and water for at least four days prior to testing. All tests took place during the light period of a 12:12 hour light-dark cycle. Each daily test consisted of one group of mice receiving a vehicle injection and an injection of amphetamine as the agonist. One group received two vehicle injections, and one or more groups received test compound plus amphetamine. Test compounds or the appropriate vehicles were administered 20 minutes prior to the locomotor test in studies using an intraperitoneal (i.p.) route of administration with mice, 30 minutes prior to test session for studies using an i.p. route of administration to rats, 45 minutes prior to the test session for studies using an oral (p.o.) route of administration with mice and 55 minutes prior to the locomotor test for studies using a p.o. route of administration to rats.
The procedure and data analysis were identical to that reported above for reversal of amphetamine hyperlocomotion with the exception that 3 mg/kg phencyclidine was injected in place of amphetamine 10 minutes prior to the test session.

[5] = clinical trials; cited from earlier work
[6] = Induction of haloperidol-like catalepsy; format: in vivo, mouse; details: for TD50 at 0.5 h: mouse, in vivo
Description: […]. At the time of the test the front paws of the mouse were placed on a 6 mm diameter rod which was mounted between the side walls of the apparatus, 39 mm above the floor. Gentle pressure was applied from the forefinger to immobilize the animal, with its back in a slightly arched (concave) position. The experimenter then released the mouse and recorded the latency to recover normal posture, as defined by return of at least one forepaw to the floor or placement of one hindlimb on the bar. […] TD50 values for lead compounds and reference compounds were confirmed in side-by-side studies by an experimenter blind to treatment conditions.

[7] = background statement; SK&F 10047, PCP, amphetamine; cited from earlier work
[8] = cited from earlier work
sigma sites [9] = biological target: T2, sigma sites (Cavia porcellus, UniProt Q60492); assay: Sigma receptor binding assay, [3H](+)-3-PPP; details: 4 nM [3H](+)-3-PPP; guinea pig whole brain; room temperature, 45 minutes; read-out: Receptor Potency Sigma PPP (IC50, nMol)
T2 construct: Frozen whole guinea pig brains; tissue Pel-Freez, Rogers, Ariz; host or cells: whole guinea pig brain membranes
Experimental: as §1, §2

D2 [10] = details: background statement; cited from earlier work
[11] = mice, 30 minutes after injection, NE = no effect to dose shown, read-out: Catalepsy (TD50)
[12] = amphetamine 1.5 mg/kg i.p., mice, NE = no effect to dose shown
[13] = mice, 30 minutes after injection, NE = no effect to dose shown
[14] = phencyclidine 3 mg/kg, mice, NE = no effect to dose shown

T2 sequence (Q60492 whole entry): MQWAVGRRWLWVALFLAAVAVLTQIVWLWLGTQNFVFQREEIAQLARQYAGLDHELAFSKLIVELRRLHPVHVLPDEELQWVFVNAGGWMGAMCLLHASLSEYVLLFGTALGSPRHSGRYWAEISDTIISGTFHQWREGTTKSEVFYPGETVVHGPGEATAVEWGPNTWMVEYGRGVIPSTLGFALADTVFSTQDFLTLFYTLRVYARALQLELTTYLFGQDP
T1 sequence (P61169 whole entry): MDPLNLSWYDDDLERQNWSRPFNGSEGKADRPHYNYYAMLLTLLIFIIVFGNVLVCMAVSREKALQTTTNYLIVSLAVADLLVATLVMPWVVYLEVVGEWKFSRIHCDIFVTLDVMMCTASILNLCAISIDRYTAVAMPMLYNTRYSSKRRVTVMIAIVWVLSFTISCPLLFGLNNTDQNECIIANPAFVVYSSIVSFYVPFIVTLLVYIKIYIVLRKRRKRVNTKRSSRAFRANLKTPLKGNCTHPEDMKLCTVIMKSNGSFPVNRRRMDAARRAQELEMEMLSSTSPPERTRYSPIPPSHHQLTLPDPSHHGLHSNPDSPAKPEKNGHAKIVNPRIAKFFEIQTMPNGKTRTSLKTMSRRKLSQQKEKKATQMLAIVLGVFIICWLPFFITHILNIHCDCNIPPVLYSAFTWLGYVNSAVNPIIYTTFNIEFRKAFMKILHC

SMILES | IC50 (sigma sites [1]) | minimal effective dose [2] | Ki (D2 [3]) | minimal effective dose [2, 12] | IC50 (sigma sites [9]) | also measured
c1ccc(C2(N3CCCCC3)CCCCC2)cc1 [PCP, phencyclidine] | – | – | – | – | – | displacement of [3H]DTG and [3H](+)-3-PPP from sigma sites (sigma binding sites): displace [^3 H]DTG and [^3 H](+)-3-PPP from sigma sites
C[C@@H]1CN(CCCn2c3ccccc3c3ccccc32)C[C@H](C)N1 [Rimcazole, reference compound] | 1620 nM | 20 mg/kg | 22500 nM | – | – | minimal effective dose [4]: > 20 mg/kg; effectiveness in treating schizophrenia [5]: some effectiveness in treating schizophrenia; seizures [5]: induce seizures; potency at sigma sites (sigma binding sites): only moderately potent at sigma sites
O=C(CCCN1CCC(O)(c2ccc(Cl)cc2)CC1)c1ccc(F)cc1 [Haloperidol, reference compound] | – | 0.075 mg/kg | – | – | – | TD50 at 0.5 h [6, 11]: 0.14 mg/kg; reversal of stimulant and psychotomimetic effects [7]: antagonize the stimulant/psychotomimetic effects of the dopamine agonist, amphetamine, and presumed sigma agonists such as PCP; also recorded: reverses the stimulant and psychotomimetic effects of SK&F 10047 and PCP; minimal effective dose [4]: 0.15 mg/kg; displacement of [3H]DTG and [3H](+)-3-PPP from sigma sites (sigma binding sites): displace [^3 H]DTG and [^3 H](+)-3-PPP from sigma sites
CN1CCN(C2=Nc3cc(Cl)ccc3Nc3ccccc32)CC1 [Clozapine, reference compound] | – | – | – | 1 mg/kg | – | extrapyramidal side effects ([8]; background statement): relatively free of extrapyramidal side effects; agranulocytosis ([8]; chronic administration): produces agranulocytosis upon chronic administration; Catalepsy (TD50) [6, 13]: NE (4)
OC(CCCN1CCN(c2ncc(F)cn2)CC1)c1ccc(F)cc1 (stereo not drawn) [BMY14802, reference compound] | 237 nM | – | 3000 nM | 15 mg/kg | – | –
O=c1cc(-c2ccccc2)oc2ccc(OCCCCCCN3CCC(O)CC3)cc12 [Example 6, 6-6(4-hydroxypiperidinyl)hexoxy]-2-phenyl-4H-1-benzopyran-4-one hydrochloride] | 100 nM | – | 3630 nM | 5 mg/kg | 124 nM | TD50 at 0.5 h [6]: 61 mg/kg; minimal effective dose [4, 14]: 15 mg/kg
CCN1CCC[C@H]1CNC(=O)c1c(OC)ccc(Br)c1OC [Remoxipride] | – | – | – | – | – | D2 blocking potency (D2 [10]): significant D2 blocking potency
Cc1c(-c2ccccc2)oc2ccc(OCCCCCCN3CCC(O)CC3)cc2c1=O [Example 39, 6-[6-(4-Hydroxypiperidinyl)hexoxy]-3-methyl-2-phenyl-4H-1-benzopyran-4-one hydrochloride] | – | – | – | 25 mg/kg | – | Catalepsy (TD50) [6, 13]: NE (250)
O=c1cc(-c2ccccc2)oc2cc(OCCCCCCN3CCC(O)CC3)ccc12 [Example 37, 7-[6-(4-Hydroxypiperidinyl)hexoxy]-2-phenyl-4H-1-benzopyran-4-one] | – | 30 mg/kg | – | – | 70 nM | –
O=c1cc(-c2ccccc2)oc2ccc(OCCCCCCN3CCCCC3)cc12 [Example 28, 2-Phenyl-6-(6-piperidinylhexoxy)-4H-1-benzopyran-4-one hydrochloride] | – | – | 4440 nM | 20 mg/kg | 54 nM | TD50 at 0.5 h [6, 11]: < 30 mg/kg; minimal effective dose [4, 14]: 30 mg/kg
O=c1cc(-c2ccccc2Cl)oc2ccc(OCCCCCCN3CCC(O)CC3)cc12 [Example 49, 2-(2-Chlorophenyl)-6-(6-(4-hydroxypiperidinyl)hexoxy)-4H-1-benzopyran-4-onehydrochloride] | 47 nM | 30 mg/kg | 4050 nM | – | 29 nM | –
O=c1cc(C2CCCCC2)oc2ccc(OCCCCCCN3CCC(O)CC3)cc12 [Example 26, 2-Cyclohexyl-6-[6-4-hydroxypiperidinyl)hexoxy]-4H-1-benzopyran-4-one hydrochloride] | 88 nM | – | 25000 nM | 20 mg/kg | 46 nM | TD50 at 0.5 h [6]: 50 mg/kg
CN(C)CCCCCCOc1ccc2oc(-c3ccccc3)cc(=O)c2c1 [Example 4, 6-[6-Dimethylamino)hexoxy1-2-phenyl-4H-1-benzopyran-4-one hydrochloride] | 432 nM | 30 mg/kg | 5550 nM | – | 335 nM | TD50 at 0.5 h [6, 11]: 38 mg/kg; Induced Locomotion PCP (minimally effective dose, MED) [4, 14]: NE (30)
O=c1cc(-c2ccccc2)oc2ccc(OCCCCCCN3CCOCC3)cc12 [Example 29, 6-(6-Morpholinylhexoxy)-2-phenyl-4H-1-benzopyran-4-one hydrochloride] | – | 10 mg/kg | 18700 nM | – | – | TD50 at 0.5 h [6, 11]: 38 mg/kg
O=c1cc(C2CCCCC2)oc2ccc(OCCCCCCN3CCCCC3)cc12 [Example 34, 2-Cyclohexyl-6-(piperidinylhexoxy)-4H-1-benzopyran-4-one hydrochloride] | – | – | – | 10 mg/kg | 32 nM | TD50 at 0.5 h [6]: 30 mg/kg

From patent publication US5278174A, “Sigma binding site agents” (priority 1991, dated 1994)
